Test results taken from patent publication US8722580B2, “Agent for inhibiting cytokinin signaling” (Sumitomo Chemical Company, Limited, priority 2006, dated 2014).

Key:
cytokinin receptor CRE1 [1] = target: T1, cytokinin receptor CRE1 (Arabidopsis thaliana, UniProt Q9C5U0, S567G/T1018A); test: Inhibition of intracellular signaling from plant-derived cytokinin receptor, growth of transformed yeast cell TM182-CRE1; type: cell-based; conditions: for inhibition at 2 ppm: read-out: Activity (%) of test substance for inhibiting intracellular signaling from plant-derived cytokinin receptor of cell; for Relative growth rate (%) in test section of test substance to control section, Transformed cell TM182-CRE1 / Activity (%) of test substance for inhibiting intracellular signaling from plant-derived cytokinin receptor of cell: trans-zeatin 0.6 ppm, chemical substance 2 ppm; for Relative growth rate (%) in test section of test substance to control section, Transformed cell TM182-CRE1: 30° C., 24 hours, turbidity OD 600; for Activity (%) of test substance for inhibiting intracellular signaling from plant-derived cytokinin receptor of cell: = 100 − relative growth rate of TM182-CRE1
T1 construct: expressed in transfected cells; host or cells: Saccharomyces cerevisiae TM182 (sln1Δ) transformed with p415CYC-CRE1
In short: (§1)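 Relative growth % is derived from blank-corrected OD600 against DMSO wells after 24 h at 30° C, with inhibition given as 100 minus that value. Cells were set to OD600=0.1 with 0.6 ppm trans-zeatin and 2 ppm test substance: CRE1 strain in DOLU+Glu, p415CYC1 toxicity control in DOLU+Gal.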

[2] = system: transformed cell TM182-p415CYC1; test: Control growth test with transformed yeast cell TM182-p415CYC1 (toxicity to yeast); type: cell-based; conditions: trans-zeatin 0.6 ppm; chemical substance 2 ppm; 30° C., 24 hours; turbidity OD 600
In short: as §1

rice [3] = test: Root growth-promoting activity using rice, seed growth pouch (Example 11); type: in vivo, Oriza sativa L. japonica; conditions: 25° C., 7 days
Experimental: With respect to the chemical substance Ic3-1 and the chemical substance Ic7-1 (which inhibit intracellular signaling from a plant-derived cytokinin receptor of a cell) selected in Example 7, a main root-growth promoting activity was evaluated using rice (Oriza sativa L. japonica). Aqueous solutions of the chemical substance having different concentrations (10 ppm, 25 ppm, each containing 0.1% DMSO) were prepared. A naper towel was impregnated with 17 ml of the chemical solution, wherein the heavy paper was placed in a seed growth pouch for observation of root growth (177 mm×163 mm, manufactured by Daiki Rika Kogyo Co., Ltd.), and 3 rice seeds were sowed on the paper towel. The pouch was put in a plastic container, and then sealed. After culture in the light at 25° C. for 7 days, the length of a main root was measured. An average of 3 repeats was determined and a root growth rate was determined by the following equation. Root growth rate (%)=(Average main root length in chemical substance-treated section)/(Average main root length in control section)×100−100

rice [4] = test: Root growth-promoting activity by rice seed treatment (Example 12); type: in vivo, Oriza sativa L. japonica; conditions: rice seeds treated with 10,000 ppm acetone solution; 4 days dark at 30° C. then 35 days greenhouse
Experimental: With respect to the chemical substance Ic3-1 and the chemical substance Ic7-1 (which inhibit intracellular signaling from a plant-derived cytokinin receptor of a cell) selected in Example 7, a main root-growth promoting activity induced by seed treatment was evaluated using rice (Oriza sativa L. japonica). The chemical substance was dissolved in acetone to prepare a 10,000 ppm solution. The acetone chemical substance solution (300 μl) thus prepared was put in an eppendorf tube. Then, 15 seeds were put in the eppendorf tube. The resulting mixture was mixed for about 30 seconds. The seeds thus chemical-treated were spread and dried on a filter paper.
About 820 ml of culture soil was placed in a plastic container (120 mm in length, 97 mm in height) with a hole in the bottom. The chemical-treated seeds were sowed in the plastic container (15 seeds per plastic container). The seeds were cultivated in a dark place at 30° C. for 4 days and then cultivated in a greenhouse for 35 days. Roots of the plant thus cultivated were removed and the soil adhered to the plant was washed away, followed by freeze-drying. Then, the weight of roots after freeze-drying was measured. A test was repeated 3 times for each treatment section, and an average was determined.

[5] = system: hypocotyl of Arabidopsis thaliana; test: Plant differentiation-promoting activity, adventitious root formation from hypocotyl (Example 13); type: in vivo, Arabidopsis thaliana Columbia; conditions: agar medium with trans-zeatin 0.01 ppm
Experimental: With respect to the chemical substance Ic3-1 and the chemical substance Ic7-1 (which inhibit intracellular signaling from a plant-derived cytokinin receptor of a cell) selected in Example 7, a plant differentiation-promoting activity was evaluated by examining an adventitious root formation activity using an hypocotyl of Arabidopsis thaliana Columbia.
First, an agar medium for sowing Arabidopsis thaliana was prepared. The agar medium contains, as components per 1 liter of an aqueous solution, 1 parcel of mixed salts for Murashige-Scoog plant medium (Wako Pure Chemical Industries, Ltd.) for 1 liter, 10 g of sucrose, 10 ml of an aqueous 5% MES (2-(N-Morpholino)ethanesulfonic acid) solution adjusted to pH 5.7 with potassium hydroxide, 100 mg of inositol, 1 ml of vitamins stock solution (10 g of thiamine hydrochloride, 1 g of pyridoxine hydrochloride, and 1 g of nicotinic acid per 1 liter of an aqueous solution) and 8 g of agar. Then, the agar medium was subjected to autoclave at 120° C. for 20 minutes, dispensed to circular petri dishes, and then solidified.
Seeds of Arabidopsis thaliana (about 25 μl) were put in a 1.5 ml tube. Thereto was added 1 ml of a 10-fold diluted solution of a sodium hypochlorite solution (Nacalai Tesque) with sterilized distilled water. The seed were sterilized while stirring for about 1 minute with a tube mixer (TOMY, MT-360, MIXING SPEED10). […]

cytokinin receptor CRE1 [6] = target: T1, cytokinin receptor CRE1; type: binding; conditions: radiolabel 2IP 10 nM; test substance 10 μM
Experimental: As the cytokinin labeled with a radioisotope of hydrogen, tritium so as to become highly radioactive, [3H]N-6-(isopent-2-enyl)Adenine manufactured by Amersham Biosciences (hereinafter, referred to as radiolabel 2IP) was used.
First, 100 μg of the membrane protein fraction of the transformed cell TM182-p415CYC1, a radiolabel 2IP dilution at a predetermined concentration with a phosphate buffer and 1 μl of a test substance dilution at a predetermined concentration with DMSO were mixed in a phosphate buffer to prepare 100 μl of a reaction liquid. Next, the reaction liquid was allowed to stand in ice for 1 hour and then filtered with a glass filter GF/B (manufactured by Whatman) to collect a membrane protein fraction of the transformed cell TM182-p425GPD-CRE1. The glass filter was immersed in a liquid scintillation cocktail Ultima Gold (manufactured by PerkinElmer Co., Ltd.), and radioactivity was measured by a liquid scintillation counter. […] In order to eliminate influence of radioactivity due to nonspecific binding of the radiolabel 2IP, a value of radioactivity obtained in the test using the membrane protein fraction of the transformed cell TM182-p425GPD was subtracted from a value of radioactivity obtained in the test using the membrane protein fraction of the transformed cell TM182-p425GPD-CRE1.

Arabidopsis thaliana [7] = test: Root growth-promoting activity test (Example 9); type: in vivo; conditions: main root length vs control section, 22° C., 10 days
In short: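 Compounds at 0.001–10 ppm final (added in DMSO) were mixed into Enshi medium, and Arabidopsis thaliana seeds were cultured in it for 10 days at 22° C under light. Root growth rate (%) is the treated mean main-root length divided by the control mean, from eight repeats.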

Arabidopsis thaliana [8] = test: Root growth-promoting activity test (Example 22); type: in vivo; conditions: main root length vs control section, 22° C., 10 days
Experimental: Enshi standard medium having the following composition (see Table 18) was prepared. To cluster tubes was dispensed each 4 μl of a solution of a chemical substance in DMSO to a final concentration of 0.001 ppm to 10 ppm, and then, was dispensed each 600 μl of the sterilized Enshi standard medium. Then the resulting solution was well mixed. In each of the cluster tubes, 10-20 seeds of Arabidopsis thaliana were sown, and cultured at 22° C. for 10 days in the light. Then, the length of main roots (average main roots) generated from the seeds of Arabidopsis thaliana was measured. An average of eight repeats was determined, and a root growth rate was determined according to the following equation.
Root growth rate (%)=(Average main root length in chemical substance-treated section)/(Average main root length in control section)×100
Enshi standard medium determined having the following composition (Table 18) was prepared. A DMSO solution of a chemical substance was dispensed by 4 μl to cluster tubes to a final concentration of 0.001 ppm to 10 ppm and the sterilized Enshi standard medium was dispensed by 600 μl and then the resulting solution was well mixed. 10-20 seeds of A. thaliana per cluster tube were sown in the cluster tubes. After culture at 22° C. for 10 days in bright light, the length of main roots (average main roots) took from seeds of A. thaliana was measured. An average of eight repeats was determined and the root growth rate was determined.
Root growth rate (%)=(Average main root length of chemical substance-treated section)/(Average main root length of control section)×100

T1 sequence (Q9C5U0 24-1080 S567G/T1018A): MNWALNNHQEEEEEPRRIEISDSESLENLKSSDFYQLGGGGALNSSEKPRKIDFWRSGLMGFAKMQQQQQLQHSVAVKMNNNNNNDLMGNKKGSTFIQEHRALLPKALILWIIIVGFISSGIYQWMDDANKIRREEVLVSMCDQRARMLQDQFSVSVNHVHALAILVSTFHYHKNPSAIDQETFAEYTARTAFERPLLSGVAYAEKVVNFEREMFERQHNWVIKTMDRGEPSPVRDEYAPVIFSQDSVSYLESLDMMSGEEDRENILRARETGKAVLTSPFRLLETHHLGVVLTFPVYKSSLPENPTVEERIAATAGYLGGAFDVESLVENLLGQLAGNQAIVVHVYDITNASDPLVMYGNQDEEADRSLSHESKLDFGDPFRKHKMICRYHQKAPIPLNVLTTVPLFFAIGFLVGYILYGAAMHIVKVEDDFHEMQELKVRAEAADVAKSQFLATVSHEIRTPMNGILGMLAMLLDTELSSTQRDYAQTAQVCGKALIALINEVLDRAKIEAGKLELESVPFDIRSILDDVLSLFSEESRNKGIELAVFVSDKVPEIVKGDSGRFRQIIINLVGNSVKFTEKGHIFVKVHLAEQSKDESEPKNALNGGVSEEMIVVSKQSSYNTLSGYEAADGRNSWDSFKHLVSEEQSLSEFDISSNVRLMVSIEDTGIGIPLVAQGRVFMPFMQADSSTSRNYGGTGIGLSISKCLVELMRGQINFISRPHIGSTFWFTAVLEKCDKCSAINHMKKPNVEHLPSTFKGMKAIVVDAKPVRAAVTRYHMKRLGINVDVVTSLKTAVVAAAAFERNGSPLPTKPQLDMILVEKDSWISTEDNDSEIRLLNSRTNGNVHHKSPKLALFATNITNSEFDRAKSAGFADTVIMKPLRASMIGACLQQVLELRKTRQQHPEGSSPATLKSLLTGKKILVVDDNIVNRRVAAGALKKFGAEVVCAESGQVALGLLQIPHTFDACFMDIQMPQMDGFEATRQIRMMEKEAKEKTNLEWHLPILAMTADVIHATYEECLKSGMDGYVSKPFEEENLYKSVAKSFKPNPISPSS

Structure (SMILES)	inhibition at 2 ppm (cytokinin receptor CRE1 [1]) [%]	Relative growth rate (%) in test section of test substance to control section, Transformed cell TM182-CRE1 (cytokinin receptor CRE1 [1]) [%]	Relative growth rate (%) in test section of test substance to control section, Transformed cell TM182-p415CYC1 [2] [%]	main root growth increase relative to the control section (rice [3]; 10 ppm) [%]	main root growth increase relative to the control section (rice [3]; 25 ppm) [%]	dry weight of roots per plant, % of the control section (rice [4]) [%]	melting point [°C]	radioactivity of bound radiolabel 2IP compared with DMSO only or abscisic acid (cytokinin receptor CRE1 [6])	Activity (%) of test substance for inhibiting intracellular signaling from plant-derived cytokinin receptor of cell (cytokinin receptor CRE1 [1]) [%]	further results
OCCNc1nc(-c2ccccc2)c2cc(Cl)ccc2n1 [Ic3-1, 6-chloro-2-(2-hydroxyethylamino)-4-phenylquinazoline]	94.6	5.4	114.1	17	20	119	137.9			adventitious root formation from the hypocotyl portion ([5]; all test sections, final concentration 6 ppm, 2 ppm, 0.6 ppm or 0.2 ppm): adventitious roots were formed
C/C(=C\CNc1ncnc2nc[nH]c12)CO [trans-zeatin, reference compound]								the radioactivity was decreased		
O=[N+]([O-])c1ccc2nc(NCCCO)nc(-c3ccccc3)c2c1 [Ic7-1]		6.7	115.8	17	19	126			93.3	adventitious root formation from the hypocotyl portion ([5]; test sections with final concentration 6 ppm or 2 ppm): adventitious roots were formed
CCOC(=O)CNc1nc(-c2ccccc2)c2cc(Cl)ccc2n1 [Ic3-33, 6-chloro-2-ethoxycarbonylmethylamino-4-phenylquinazoline]	99	1.0	114.6				146.1			activity at 5 ppm (Arabidopsis thaliana [7]; Arabidopsis thaliana, 240 h, test final concentration 5 ppm (concentration with highest root growth rate)): 124%; Root growth-promoting activity (root growth rate) (Arabidopsis thaliana [8]; test final concentration 10 ppm (highest root growth rate)): 140.4%
O=C(O)Cc1c[nH]c2ccccc12 [IAA, reference compound]						87				
OCCCCNc1nc(-c2ccccc2)c2cc(Cl)ccc2n1 [Ic3-4]		1.4	106.4					the radioactivity was decreased	98.6	Root growth-promoting activity (root growth rate) (Arabidopsis thaliana [7]; test final concentration 0.625 ppm (concentration with highest root growth rate)): 129.5%; Root growth-promoting activity (root growth rate) (Arabidopsis thaliana [8]; test final concentration 0.625 ppm (highest root growth rate)): 129.5%
